The values below come from US5847092A (Zambon Group S.p.A., priority 1994, dated 1998).

≈ marks a conversion by molar mass, not a printed value. Read-outs that look alike come from different tables or passages of the source. Some results are limits rather than exact numbers.

Data set [1] deals with Enterococcus faecalis ATCC 29212. As to the kind of experiment: In vitro antibacterial activity, MIC, broth microdilution. Type of data set: cell-based. The conditions noted are these: Enterococcus faecalis, ATCC29212; E. faecalis ATCC 29212; MHB; 37° C., 18 hours; read-out: minimum inhibiting concentration MIC. An outline of the steps:
(§1)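 MIC by broth microdilution (doubling dilutions, NCCLS 1990) in Mueller Hinton Broth, with 5% horse serum added for S. pneumoniae and S. pyogenes. Plates incubated 18 h at 37° C. MIC (μg/ml) is the lowest concentration inhibiting bacterial growth.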

In data set [2] the test system is Escherichia coli ATCC 25922. Described as above. Type of data set: cell-based. The conditions noted are these: Escherichia coli, ATCC25922; E. coli ATCC 25922; MHB; 37° C., 18 hours; read-out: minimum inhibiting concentration MIC. Put shortly: as §1
In data set [3] the test system is Klebsiella pneumoniae ZC 2. Described as above. The conditions noted are these: Klebsiella pneumoniae, ZC2; K. pneumoniae ZC 2; MHB; 37° C., 18 hours; read-out: minimum inhibiting concentration MIC. Type of data set: cell-based. An outline of the steps: as §1
Data set [4] concerns Staphylococcus aureus PV 14. Described as above. Type of data set: cell-based. The conditions noted are these: Staphylococcus aureus, PV14; S. aureus PV 14; MHB; 37° C., 18 hours; read-out: minimum inhibiting concentration MIC. An outline of the steps: as §1
In data set [5] the test system is Streptococcus pneumoniae BS 3. The data set is described as above. Type of data set: cell-based. Conditions: Streptococcus pneumoniae, BS3; S. pneumoniae BS 3; MHB + 5% horse serum; 37° C., 18 hours; read-out: minimum inhibiting concentration MIC. Put shortly: as §1
The test system of data set [6] is Streptococcus pneumoniae BS 4. The description is as above. Type of data set: cell-based. The conditions noted are these: Streptococcus pneumoniae, BS4; S. pneumoniae BS 4; MHB + 5% horse serum; 37° C., 18 hours; read-out: minimum inhibiting concentration MIC. Put shortly:
as §1

The subject of data set [7] is Streptococcus pyogenes A 26. Described as above. Type of data set: cell-based. The conditions noted are these: Streptococcus pyogenes, A26; S. pyogenes A 26; MHB + 5% horse serum; 37° C., 18 hours; read-out: minimum inhibiting concentration MIC. Put shortly: as §1
Data set [8] relates to Streptococcus pyogenes C 203. The description is as above. Conditions: Streptococcus pyogenes, C203; S. pyogenes C 203; MHB + 5% horse serum; 37° C., 18 hours; read-out: minimum inhibiting concentration MIC. Type of data set: cell-based. Put shortly: as §1
Data set [9] concerns Streptococcus pyogenes C 203. In words: In vivo antibacterial activity, experimental pulmonary infection in mouse. The conditions noted are these: for ED50: Streptococcus pyogenes, C203, ip, 240 h, intraperitoneal single dose, read-out: average protecting dose PD50. The protocol: The in vivo antibacterial activity of the compounds of formula (I), expressed as average protecting dose PD50 (mg/Kg), was evaluated by means of experimental pulmonary infection induced in mouse by Streptococcus pyogenes (example 23).
b) In vivo antibacterial activity
The therapeutical effectiveness, expressed as average protecting dose (PD50), of the considered compounds of formula (I) was evaluated by experimental pulmonary infection induced in mouse by Streptococcus pyogenesC 203.
Charles River albin mice (strain CD 1), of body weight comprised between 23-35 g, stabulated in groups of 6 for cage and normo-feeded with standard diet and water ad libitum were used. A suspension of S. pyogenes C 203 (corresponding about to 10^8 UFC) in tryptose broth (0.05 ml) was intranasally administered to each mouse anesthesized with a mixture of ethyl ether and chloroform.
The compounds under examination were intraperitoneally administered as a single dose, in 0.2% Tween suspension, 24 hours before or 1 hour after the infection.
Mice mortality observation was prolonged up to 10 days from the infection.
PD50 calculation, expressed as (mg/Kg), was carried out through the analysis of probit.
In vivo antibacterial activity, expressed as average protecting dose PD50 (mg/Kg), 24 hours before and 1 hour after the experimental pulmonary infection induced in mouse by Streptococcus pyogenes C 203, of the compounds 4, 10, 16-19, 21, 23, 26-27, 29-30, 33-35 and 38 and of the reference compounds Roxithromycin and Clarithromycin.

The conditions of data set [10]: literature; cited from earlier work.
The conditions of data set [11]: literature; cited from earlier work. The source holds these as a separate data set.
Data set [12] relates to Gram-positive and Gram-negative bacteria. Conditions: literature; cited from earlier work.
In a further data set the test system is eukaryotic parasites. Conditions: literature; cited from earlier work.

Take `CC[C@H]1OC(=O)[C@H](C)[C@@H](O[C@H]2C[C@@](C)(OC)[C@@H](O)[C@H](C)O2)[C@H](C)[C@@H](O[C@@H]2O[C@H](C)C[C@H](N(C)C)[C@H]2O)[C@](C)(O)C[C@@H](C)/C(=N\OCCNCCCCCCNCc2ccc(-c3ccccc3)cc2)[C@H](C)[C@@H](O)[C@]1(C)O` [Compound 30, Erythromycin A (E)-9-[0-[2-[6-[(biphenyl-4-yl)methylamino]hexylamino]ethyl]oxime]]: the MIC in data set [1] came to 1 µg/mL (≈ 0.946 µM); in data set [2], 1 µg/mL (≈ 0.946 µM); in data set [3], 2 µg/mL (≈ 1.89 µM); in data set [4], 0.5 µg/mL (≈ 0.473 µM); in data set [5], 0.0156 µg/mL; in data set [6] it was 0.0156 µg/mL. Also, the MIC in data set [7] amounted to 0.0156 µg/mL; in data set [8] it was 0.0078 µg/mL. For the same compound, the ED50 in data set [9] (1 hour after infection) and in data set [9] (24 hours before infection) was 19.3 mg/kg throughout.

With `CC[C@H]1OC(=O)[C@H](C)[C@@H](O[C@H]2C[C@@](C)(OC)[C@@H](O)[C@H](C)O2)[C@H](C)[C@@H](O[C@@H]2O[C@H](C)C[C@H](N(C)C)[C@H]2O)[C@](C)(O)C[C@@H](C)/C(=N\OCCNCCCCCCNCc2ccccc2[N+](=O)[O-])[C@H](C)[C@@H](O)[C@]1(C)O` [Compound 33, Erythromycin A (E)-9-[0-[2-[6-[(2-nitrophenyl)methylamino]hexylamino]ethyl]oxime]], the MIC in [1] was determined as 2 µg/mL (≈ 1.95 µM); in data set [2] it was 4 µg/mL (≈ 3.9 µM); in [3], 16 µg/mL (≈ 15.6 µM); in [4], 0.5 µg/mL (≈ 0.487 µM); in data set [5], 0.0039 µg/mL; in data set [6] it was 0.0039 µg/mL. The MIC in data set [7] stood at 0.0039 µg/mL; in data set [8], 0.00097 µg/mL. The values for the ED50 in data set [9] (1 hour after infection) and in [9] (24 hours before infection) were 1.61 mg/kg and 6.11 mg/kg, respectively.

For `CC[C@H]1OC(=O)[C@H](C)[C@@H](O[C@H]2C[C@@](C)(OC)[C@@H](O)[C@H](C)O2)[C@H](C)[C@@H](O[C@@H]2O[C@H](C)C[C@H](N(C)C)[C@H]2O)[C@](C)(O)C[C@@H](C)/C(=N\OCCNCCCCCCNCc2cccc([N+](=O)[O-])c2)[C@H](C)[C@@H](O)[C@]1(C)O` [Compound 34, Erythromycin A (E)-9-[0-[2-[6-[(3-nitrophenyl)methylamino]hexylamino]ethyl]oxime]], the MIC stood at 1 µg/mL (≈ 0.974 µM) in data set [1]; 1 µg/mL (≈ 0.974 µM) in data set [2]; 8 µg/mL (≈ 7.79 µM) in [3]; 0.25 µg/mL (≈ 0.244 µM) in data set [4]; 0.0019 µg/mL in data set [5]; 0.0039 µg/mL in data set [6]. Further, the values for the MIC in data set [7] and in data set [8] were 0.0078 µg/mL and 0.0039 µg/mL, respectively. The ED50 in [9] (1 hour after infection) was 1.88 mg/kg; in [9] (24 hours before infection), 6.8 mg/kg.

Regarding `CC[C@H]1OC(=O)[C@H](C)[C@@H](O[C@H]2C[C@@](C)(OC)[C@@H](O)[C@H](C)O2)[C@H](C)[C@@H](O[C@@H]2O[C@H](C)C[C@H](N(C)C)[C@H]2O)[C@](C)(O)C[C@@H](C)/C(=N\OCCNCCCCCCNCc2ccc([N+](=O)[O-])cc2)[C@H](C)[C@@H](O)[C@]1(C)O` [Compound 35], the MIC in [1] is 0.5 µg/mL (≈ 0.487 µM); in [2], 1 µg/mL (≈ 0.974 µM); in [3], 4 µg/mL (≈ 3.9 µM); in data set [4], 0.25 µg/mL (≈ 0.244 µM); in [5], 0.0039 µg/mL; in data set [6], 0.0039 µg/mL. In addition, the MIC in data set [7] was 0.0078 µg/mL; in data set [8], 0.0019 µg/mL. Besides, the ED50 in data set [9] (1 hour after infection) is 3 mg/kg; in data set [9] (24 hours before infection) it was 6 mg/kg.

Take `CC[C@H]1OC(=O)[C@H](C)[C@@H](O[C@H]2C[C@@](C)(OC)[C@@H](O)[C@H](C)O2)[C@H](C)[C@@H](O[C@@H]2O[C@H](C)C[C@H](N(C)C)[C@H]2O)[C@](C)(O)C[C@@H](C)/C(=N\OCCN(C)CCCCCCN(C)Cc2ccccc2)[C@H](C)[C@@H](O)[C@]1(C)O` [Compound 38, Erythromycin A (E)-9-[0-[2-[N-methyl-6-(N'-methyl-N'-phenylmethylamino)hexylamino]ethyl]oxime]]: the MIC in data set [1] came to 8 µg/mL (≈ 7.93 µM); in data set [2] it was 8 µg/mL (≈ 7.93 µM); in [3], 32 µg/mL (≈ 31.7 µM); in data set [4], 0.5 µg/mL (≈ 0.495 µM); in data set [5], 0.0078 µg/mL; in data set [6] it was 0.0039 µg/mL. For the same compound, the MIC in data set [7] was 0.0156 µg/mL; in data set [8], 0.0078 µg/mL. Moreover, the ED50 in [9] (1 hour after infection) and in [9] (24 hours before infection) was 11.8 mg/kg in each case.

For `CC[C@H]1OC(=O)[C@H](C)[C@@H](O[C@H]2C[C@@](C)(OC)[C@@H](O)[C@H](C)O2)[C@H](C)[C@@H](O[C@@H]2O[C@H](C)C[C@H](N(C)C)[C@H]2O)[C@](C)(O)C[C@@H](C)C(=NOCCN(CC)CC)[C@H](C)[C@@H](O)[C@]1(C)O` [Erythromycin A 9-[0-[(2-diethylamino)ethyl]oxime]], the “stability to the acids (in words)” value in [10] was “superior stability to the acids”. In addition, the “pharmacokinetic properties / bioavailability (in words)” value in data set [11] is reported as “better pharmacokinetic properties”. Moreover, in data set [12], the “spectrum of activity in vitro (in words)” value is listed as “comparable to that of Erythromycin A”.

For `CC[C@H]1OC(=O)[C@H](C)[C@@H](O[C@H]2C[C@@](C)(OC)[C@@H](O)[C@H](C)O2)[C@H](C)[C@@H](O[C@@H]2O[C@H](C)C[C@H](N(C)C)[C@H]2O)[C@](C)(O)C[C@@H](C)C(=NOCCN(C)C)[C@H](C)[C@@H](O)[C@]1(C)O` [Erythromycin A 9-[0-[(2-dimethylamino)ethyl]oxime]], the “stability to the acids (in words)” value in data set [10] was “superior stability to the acids”. Moreover, in data set [11], the “pharmacokinetic properties / bioavailability (in words)” value is listed as “better pharmacokinetic properties”. In addition, the “spectrum of activity in vitro (in words)” value in data set [12] is “comparable to that of Erythromycin A”.

On to `CC[C@H]1OC(=O)[C@H](C)[C@@H](O[C@H]2C[C@@](C)(OC)[C@@H](O)[C@H](C)O2)[C@H](C)[C@@H](O[C@@H]2O[C@H](C)C[C@H](N(C)C)[C@H]2O)[C@](C)(O)C[C@@H](C)C(=O)[C@H](C)[C@@H](O)[C@]1(C)O` [Erythromycin A], for which the “spectrum of activity in vitro (in words)” value in [12] is listed as “antibacterial activity mainly against Gram-positive microorganisms”. In the data set with eukaryotic parasites, the “activity against eukaryotic parasites (in words)” value is “active against eukaryotic parasites”.

As to `CC[C@H]1OC(=O)[C@H](C)[C@@H](O[C@H]2C[C@@](C)(OC)[C@@H](O)[C@H](C)O2)[C@H](C)[C@@H](O[C@@H]2O[C@H](C)C[C@H](N(C)C)[C@H]2O)[C@](C)(O)C[C@@H](C)/C(=N\OCOCCOC)[C@H](C)[C@@H](O)[C@]1(C)O` [Roxithromycin, Erythromycin A 9-[0-[(2-methoxyethoxy)methyl]oxime], reference compound], the MIC in data set [1] was 4 µg/mL (≈ 4.78 µM); in data set [2], 28 µg/mL (≈ 33.5 µM); in [3], 256 µg/mL (≈ 306 µM); in data set [4] it was 1 µg/mL (≈ 1.19 µM); in [5], 0.0312 µg/mL; in data set [6] it was 0.0625 µg/mL. The MIC in data set [7] and in data set [8] was 0.0625 µg/mL throughout. For the same compound, the ED50 was 0.9 mg/kg in [9] (1 hour after infection) and over 25 mg/kg in data set [9] (24 hours before infection). For the same compound, the “in vivo activity, pulmonary infection (in words)” value in data set [9] (administered 24 hours before the infection) was “inactive”. The “stability to the acids (in words)” value in data set [10] is on record as “superior stability to the acids”. Also, the “pharmacokinetic properties / bioavailability (in words)” value in data set [11] was “better pharmacokinetic properties”. The “spectrum of activity in vitro (in words)” value in [12] was “comparable to that of Erythromycin A”.
